For assay [1], the target named is T1, Ras farnesyl transferase (Homo sapiens, UniProt P49354+P49356).
T1 construct: made in house
Kind of assay: Ras farnesyl transferase enzyme inhibition, H-Ras substrate. Type of assay: biochemical. As to conditions: H-Ras substrate protein; recombinant farnesyl transferase; 30 minutes at 37° C.

In assay [2] the target is T2, Ras farnesyl transferase (Rattus norvegicus, UniProt Q02293+Q04631).
T2 construct: endogenous in cells; host or cells: Rat2 fibroblasts transformed with C-Harvey-Ras or with the H-Ras/K-Ras polybasic-domain fusion
The experiment in a line: In vivo (intracellular) Ras farnesylation inhibition in Rat2 cell line expressing C-Harvey-Ras. Type of assay: cell-based. Particulars: Rat2 cells expressing C-Harvey-Ras; concentration inhibiting 50% of farnesyl binding; read-out: H-Ras CIC50. The essentials:
(§1)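 Transformed Rat2 fibroblasts treated with compound (1% DMSO) for 4 h, then labelled with [^35S]methionine 150 μCi/ml for 20 h. Ras immunoprecipitated with Y13-259 and resolved on 13.5% SDS-PAGE autoradiography; CIC50 is concentration inhibiting 50% of farnesylated Ras band.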

For assay [3], the target named is T1, Ras farnesyl transferase. Kind of assay: Ras farnesyl transferase enzyme inhibition, K-Ras substrate (H-Ras fused with polybasic lysine domain of K-Ras). Type of assay: biochemical. As to conditions: K-Ras substrate (fused protein of H-Ras with polybasic lysine domain of K-Ras); recombinant farnesyl transferase.
Assay [4] addresses T2, Ras farnesyl transferase. Kind of assay: In vivo (intracellular) Ras farnesylation inhibition in Rat2 cell line transformed with H-Ras fused with polybasic lysine domain of K-Ras. As to conditions: Rat2 cells transformed with H-Ras/K-Ras polybasic domain fused protein; concentration inhibiting 50% of farnesyl binding; read-out: K-Ras CIC50. Type of assay: cell-based. The essentials:
as §1

Each structure is given as a SMILES string.

Regarding `O=[N+]([O-])c1cn(Cc2cncn2CCc2ccc(F)cc2)cc1-c1cccc2ccccc12` [Example 42, 1-[1-(4-fluorophenethyl)-1H-imidazol-5-ylmethyl]-4-(naphthalen-1-yl)-3-nitro-1H-pyrrole], the IC50 on Ras farnesyl transferase [1] was less than 4.15 nM; at Ras farnesyl transferase [2] it was greater than 50 nM; on Ras farnesyl transferase [3], less than 7.5 nM; on Ras farnesyl transferase [4], greater than 10000 nM.

In the case of `O=[N+]([O-])c1cn(Cc2cncn2CCc2cccc(Br)c2)cc1-c1cccc2ccccc12` [Example 43, 1-[1-(3-bromophenethyl)-1H-imidazol-5-ylmethyl]-4-(naphthalen-1-yl)-3-nitro-1H-pyrrole], the IC50 at Ras farnesyl transferase [1] is less than 3 nM; at Ras farnesyl transferase [2], greater than 50 nM; at Ras farnesyl transferase [3], less than 13 nM; at Ras farnesyl transferase [4], greater than 10000 nM.

Regarding `COc1ccc(CCn2cncc2Cn2cc(-c3cccc4ccccc34)c([N+](=O)[O-])c2)cc1` [Example 44, 1-[1-(4-methoxyphenethyl)-1H-imidazol-5-ylmethyl]-4-(naphthalen-1-yl)-3-nitro-1H-pyrrole], the IC50 is less than 11 nM on Ras farnesyl transferase [1], less than 25 nM at Ras farnesyl transferase [2], less than 15 nM at Ras farnesyl transferase [3] and greater than 10000 nM on Ras farnesyl transferase [4].

On to `COc1cccc(CCn2cncc2Cn2cc(-c3cccc4ccccc34)c([N+](=O)[O-])c2)c1` [Example 45, 1-[1-(3-methoxyphenethyl)-1H-imidazol-5-ylmethyl]-4-(naphthalen-1-yl)-3-nitro-1H-pyrrole], for which the IC50 at Ras farnesyl transferase [1] is less than 16 nM; at Ras farnesyl transferase [2], less than 25 nM; at Ras farnesyl transferase [3], less than 16 nM; on Ras farnesyl transferase [4], greater than 10000 nM.

Consider `O=[N+]([O-])c1cn(Cc2cncn2CCc2cccc3ccccc23)cc1-c1cccc2ccccc12` [Example 46, 1-[1-(naphthalen-1-ylethyl)-1H-imidazol-5-ylmethyl]-4-(naphthalen-1-yl)-3-nitro-1H-pyrrole], for which the IC50 on Ras farnesyl transferase [1] is less than 7 nM; on Ras farnesyl transferase [2] it was greater than 50 nM; on Ras farnesyl transferase [3], less than 6 nM; on Ras farnesyl transferase [4] it was greater than 10000 nM.

As to `CCOCCCn1cncc1Cn1cc(-c2cccc3ccccc23)c([N+](=O)[O-])c1` [Example 47, 1-[1-(3-ethoxypropyl)-1H-imidazol-5-ylmethyl]-4-(naphthalen-1-yl)-3-nitro-1H-pyrrole], the IC50 was less than 15 nM at Ras farnesyl transferase [1], less than 12.5 nM on Ras farnesyl transferase [2], less than 29 nM at Ras farnesyl transferase [3] and greater than 10000 nM on Ras farnesyl transferase [4].

For `Cn1cncc1Cn1cc(-c2cccc3ccccc23)c([N+](=O)[O-])c1` [Example 48, 1-[1-(methyl)-1H-imidazol-5-ylmethyl]-4-(naphthalen-1-yl)-3-nitro-1H-pyrrole], the IC50 at Ras farnesyl transferase [1] was greater than 30 nM; at Ras farnesyl transferase [2], greater than 50 nM; on Ras farnesyl transferase [3] it was greater than 30 nM; at Ras farnesyl transferase [4], greater than 10000 nM.

In the case of `O=[N+]([O-])c1cn(Cc2cncn2Cc2ccc3ccccc3c2)cc1-c1cccc2ccccc12` [Example 49, 1-[1-(naphthalen-2-ylmethyl)-1H-imidazol-5-ylmethyl]-4-(naphthalen-1-yl)-3-nitro-1H-pyrrole], the IC50 was less than 30 nM at Ras farnesyl transferase [1], greater than 50 nM at Ras farnesyl transferase [2], greater than 30 nM at Ras farnesyl transferase [3] and greater than 10000 nM on Ras farnesyl transferase [4].

For `Nc1cn(Cc2cncn2Cc2ccc(Cl)cc2)cc1-c1cccc2ccccc12` [Example 50, 3-amino-1-[1-(4-chlorobenzyl)-1H-imidazol-5-ylmethyl]-4-(naphthalen-1-yl)-1H-pyrrole], the IC50 is greater than 30 nM on Ras farnesyl transferase [1], greater than 50 nM on Ras farnesyl transferase [2], greater than 30 nM on Ras farnesyl transferase [3] and greater than 10000 nM at Ras farnesyl transferase [4].

For the compound `Cc1ncn(Cc2ccc3c(c2)OCO3)c1Cn1cc(C(=O)N2CCN(C)CC2)c(-c2cc(Br)cc3ccccc23)c1` [Example 51, 4-(3-bromonaphthalen-1-yl)-1-[4-methyl-1-(3,4-methylenedioxybenzyl)-1H-imidazol-5-ylmethyl]-3-(4-methylpiperazin-1-yl)carbonyl-1H-pyrrole], the IC50 on Ras farnesyl transferase [1] was less than 10 nM; on Ras farnesyl transferase [2] it was less than 10 nM; at Ras farnesyl transferase [3], less than 30 nM; at Ras farnesyl transferase [4], greater than 10000 nM.

For the compound `Cc1ncn(Cc2ccc3c(c2)OCO3)c1Cn1cc(C(=O)N2CCN(C)CC2)c(-c2cc(Cl)cc3ccccc23)c1` [Example 52, 4-(3-chloronaphthalen-1-yl)-1-[4-methyl-1-(3,4-methylenedioxybenzyl)-1H-imidazol-5-ylmethyl]-3-(4-methylpiperazin-1-yl)carbonyl-1H-pyrrole], the IC50 at Ras farnesyl transferase [1] was less than 10 nM; on Ras farnesyl transferase [2], less than 10 nM; on Ras farnesyl transferase [3], less than 30 nM; on Ras farnesyl transferase [4], greater than 10000 nM.

For the compound `Cc1ncn(Cc2ccc3ccccc3c2)c1Cn1cc(C(=O)N2CCN(C)CC2)c(-c2cc(Br)cc3ccccc23)c1` [Example 53, 4-(3-bromonaphthalen-1-yl)-1-[4-methyl-1-(naphthalen-2-yl)methyl-1H-imidazol-5-ylmethyl]-3-(4-methylpiperazin-1-yl)carbonyl-1H-pyrrole], the IC50 on Ras farnesyl transferase [1] was less than 10 nM; at Ras farnesyl transferase [2] it was less than 10 nM; at Ras farnesyl transferase [3], less than 30 nM; on Ras farnesyl transferase [4], greater than 10000 nM.

In the case of `Cc1ncn(Cc2ccc3ccccc3c2)c1Cn1cc(C(=O)N2CCN(C)CC2)c(-c2cc(Cl)cc3ccccc23)c1` [Example 54, 4-(3-chloronaphthalen-1-yl)-1-[4-methyl-1-(naphthalen-2-yl)methyl-1H-imidazol-5-ylmethyl]-3-(4-methylpiperazin-1-yl)carbonyl-1H-pyrrole], the IC50 on Ras farnesyl transferase [1] was less than 10 nM; on Ras farnesyl transferase [2], less than 10 nM; on Ras farnesyl transferase [3], less than 30 nM; on Ras farnesyl transferase [4], greater than 10000 nM.

Consider `Cc1ncn(Cc2ccc3ccccc3c2)c1Cn1cc(C(=O)N2CCN(C)CC2)c(-c2cccc3ccccc23)c1` [Example 55, 1-[4-methyl-1-(naphthalen-2-yl)methyl-1H-imidazol-5-ylmethyl]-3-(4-methylpiperazin-1-yl)carbonyl-4-(naphthalen-1-yl)-1H-pyrrole], for which the IC50 is less than 10 nM at Ras farnesyl transferase [1], less than 10 nM at Ras farnesyl transferase [2], less than 30 nM at Ras farnesyl transferase [3] and greater than 10000 nM at Ras farnesyl transferase [4].
